Results from patent US8241607B2, “Use of fructose-based compounds for the diagnosis of cancer” (priority 2005, dated 2012).

How the values were obtained:
Format in all cases: cell-based
[1] = tested on: PANC-1 cells; test: PANC-1 proliferation in fructose versus glucose (MTS assay)
Description: FIG. 13 depicts higher proliferation rates in pancreatic cancer cells in fructose (5.5 mM) than glucose (5.5 mM) containing medium in accordance with an embodiment of the present invention. PANC-1 cells were pre-incubated in 2 mM glucose, after which they were plated in 5.5 mM fructose or glucose for times between 12-72 h, after which proliferative rates were measured using an MTS assay. Proliferative rates are expressed as the percentage difference between cells grown in 5.5 mM fructose versus 5.5 mM glucose. p<0.01 for times >48 h.
FIG. 14 depicts proliferation rates of pancreatic cells in different fructose or glucose concentrations in accordance with an embodiment of the present invention. PANC-1 cells were plated in a range of fructose or glucose concentrations (5-25 mM) for 72 h, after which proliferative rates were measured using an MTS assay. *, p<0.05 for concentrations between 5-25 mM fructose versus glucose.
FIG. 17 depicts cell proliferation regardless of co-existent glucose concentration in accordance with an embodiment of the present invention. PANC-1 cells were pre-incubated in 2 mM glucose prior to treatment with a range of concentrations (0-15 mM) mixed with a range of fructose concentrations (0-15 mM) for 72 h. PANC-1 cell proliferative rates were then measured using the MTS assay (absorbance in arbitrary units).
Standard media for maintenance cancer cell line culture, including pancreatic cancer cells such as PANC-1 cells contain either low- (5-7 mM), or high- (12-25 mM) glucose concentrations. […] Proliferative rates were then measured in replicate (minimum of 6) aliquot wells of the pancreatic cancer cells, and the change (expressed as percent increase) in proliferative rates compared between cells grown in glucose, or fructose containing medium.
This first result intrigued the inventors, but given there is little documentation regarding physiological fructose concentrations, the inventors first considered that the “apparent” pro-proliferative effects of fructose were simply a consequence of the highly stylized in vitro experimental conditions, and that if the pancreatic cancer cells were cultured in higher glucose concentrations, this would result in similar proliferative rates to those the inventors observed following culture in 5.5 mM fructose. […] MTS assay was employed to measure pancreatic cancer cell proliferative rates, which utilizes mitochondrial oxidation to quantify cell proliferation. As the inventors were examining carbohydrate-mediated effects, the inventors considered the change observed in proliferative rates, as measured by this assay, simply reflected changes in mitochondrial oxidation. […]

[2] = tested on: MAPK pathway; test: Western blot of MAPK pathway in PANC-1 cells; details: 5.5 mM sugar, 48 h
Description: FIG. 23 depicts Western blot analysis examining MAPK pathway expression in accordance with an embodiment of the present invention. PANC-1 pancreatic cancer cells were incubated in 2 mM glucose, 5.5 mM glucose or 5.5 mM fructose for 48 hours, after which Western blot analysis on total protein lysates was employed to examine phosphorylated MEK (pMEK), pRSK, and pCREB, and corresponding total MEK, RSK, and CREB levels.
Several signal transduction pathways may be involved in fructose-mediated pancreatic cancer growth but given the importance of the MAPK pathway in proliferation, the inventors believed that MAPK was involved. In the MAPK pathway, MEK mediated phosphorylation of the p44/42 MAP kinase (ERK) is the first step in this cascade, which results in phosphorylation of p90^Rsk, leading to transcriptional activation of CREB, and AP1, activating gene transcription and promoting cellular growth. The inventors employed Western blot analysis to examine MAPK pathway expression in pancreatic cancer cells incubated in 2 mM glucose, 5.5 mM glucose, and 5.5 mM fructose for 48 hours. Levels of the active phosphorylated proteins, pERK, pRSK, and pMEK were normalized to total ERK, RSK, and MEK levels respectively, and compared between the fructose-, and glucose-treated PANC-1 cells.

[3] = tested on: fructokinase-1 (FK-1) mRNA; test: RT-PCR of fructokinase-1 mRNA in MCF-7 cells; details: MCF-7 grown in 5 mM fructose vs 2 mM and 5 mM glucose
Description: FIG. 7 depicts fructokinase-1 expression in accordance with an embodiment of the present invention. Breast cancer cells (MCF-7) express Fructokinase-1 (FK-1). RT-PCR was used to measure fructokinase-1 (FK-1) mRNA levels in MCF-7 cells following growth in 2 mM glucose, 5.5 mM glucose, or 5.5 mM fructose for 24 h, and in two human breast cancers (BT 1 & 2), and matched adjacent normal breast tissue (NB 1 & 2) from the same individual. […] Human liver, and exclusion of template served as positive and negative controls.
The inventors used RT-PCR analysis and specific primer pairs (SEQ ID NO: 1 (3′[…]), SEQ ID NO: 2 (5′[…])) to examine fructokinase-1 (FK-1) mRNA levels in glucose- or fructose-treated breast cancer cells. […] Also examined were FK-1 mRNA levels in two surgically resected human breast cancers, and paired adjacent normal breast tissue from the same individual. FK-1 mRNA was detectable in both normal and tumor tissue.

## O=C(CO)[C@@H](O)[C@H](O)[C@H](O)CO [fructose]
[1]; 5 mM fructose vs 5-fold higher glucose (25 mM), 72 h
  proliferative rates: higher proliferative rates
[1]; 5.5 mM fructose vs 5.5 mM glucose, 72 h (maximal)
  higher proliferative rate, fructose vs glucose: 23%
[1]; 72 h, glucose 0-15 mM admixed with fructose 0-15 mM
  fructose concentration giving increase in cell proliferation regardless of co-existent glucose: ≥ 6 mM
[1]; 72 h, range 2-25 mM
  fructose concentration at which increased proliferation was first demonstrable: around 5 mM
[2]
  pERK expression: highest
  pMEK expression: highest
  pRSK expression: highest
[3]
  FK-1 mRNA levels: highest FK-1 levels
